The results in this text go back to ChEMBL document CHEMBL5260842 (J Med Chem, 2019).

Molecules are shown by their SMILES. The source made the active and inactive calls. No cut-off for these calls is given here.

The subject of assay [1] is VCaP. In words: Downregulation of ERG gene expression in human VCaP cells measured after 24 hrs by charcoal stripped serum based qRT-PCR analysis. Type of assay: functional, cell-based. To be noted: dose 1-1000 nM.
The subject of assay [2] is CWR22R. In words: Cytotoxicity against AR-positive human 22Rv1 cells assessed as inhibition of cell growth incubated for 7 days in regular culture medium by WST-8 assay. Type of assay: functional, cell-based. To be noted: 22Rv1, 168 h.
Assay [3] deals with T1, von Hippel-Lindau disease tumor suppressor/Androgen receptor (Homo sapiens, UniProt P10275+P40337). Put plainly: Protac activity at VHL/AR in AR-positive human LNCaP cells assessed as induction of androgen receptor degradation at 0.01 uM incubated for 6 hrs by Western blot analysis (reference value: 0%). Type of assay: cell-based.
The test system of assay [4] is VCaP. Put plainly: Downregulation of TMPRSS2 mRNA expression in human VCaP cells measured after 24 hrs by regular serum based qRT-PCR analysis. Type of assay: functional, cell-based. The settings on record: dose 1-1000 nM.
Assay [5] has as its target T1, von Hippel-Lindau disease tumor suppressor/Androgen receptor. In words: In vivo protac activity at VHL/AR in human VCaP cells xenografted SCID mouse assessed as reduction in PSA protein level in tumor at 50 mg/kg, ip administered as single dose measured after 3 to 48 hrs Western blot analysis. Type of assay: functional, organism-based. To be noted: time 3-48 hrs.
In assay [6] the test system is LNCaP. Put plainly: Downregulation of FKBP5 mRNA expression in human LNCaP cells measured after 24 hrs by qRT-PCR analysis. Format: functional, cell-based. The settings on record: dose 0.1-10000 nM.
For assay [7], the target named is T1, von Hippel-Lindau disease tumor suppressor/Androgen receptor. Put plainly: Protac activity at VHL/AR in human VCaP cells assessed as induction of protein degradation at 10 nM measured after 24 hrs by Western blot analysis relative to control. Type of assay: cell-based.
In assay [8] the test system is LNCaP. In words: Downregulation of PSA mRNA expression in human LNCaP cells measured after 24 hrs by qRT-PCR analysis. Type of assay: functional, cell-based. The settings on record: dose 0.1-10000 nM.
The target of assay [9] is T1, von Hippel-Lindau disease tumor suppressor/Androgen receptor. In words: Protac activity at VHL/AR in AR-positive human VCaP cells assessed as reduction in protein level at 100 nM measured after 2 to 4 hrs by Western blot analysis. Format: cell-based. To be noted: time 2-4 hrs.
For assay [10] the target is unchanged. In words: Protac activity at VHL/AR in AR-positive human LNCaP cells assessed as reduction in protein level at 100 nM measured after 2 to 4 hrs by Western blot analysis. Format: cell-based. The settings on record: time 2-4 hrs.
The target is the same in assay [11]. In words: Protac activity at VHL/AR in AR-positive human LNCaP cells assessed as induction of androgen receptor degradation at 100 nM preincubated with proteasome inhibitor, MG132 for 2 hrs followed by compound addition and measured after 6 hrs by Western blot analysis. Type of assay: cell-based.

T1 sequence (P10275 whole entry, looked up): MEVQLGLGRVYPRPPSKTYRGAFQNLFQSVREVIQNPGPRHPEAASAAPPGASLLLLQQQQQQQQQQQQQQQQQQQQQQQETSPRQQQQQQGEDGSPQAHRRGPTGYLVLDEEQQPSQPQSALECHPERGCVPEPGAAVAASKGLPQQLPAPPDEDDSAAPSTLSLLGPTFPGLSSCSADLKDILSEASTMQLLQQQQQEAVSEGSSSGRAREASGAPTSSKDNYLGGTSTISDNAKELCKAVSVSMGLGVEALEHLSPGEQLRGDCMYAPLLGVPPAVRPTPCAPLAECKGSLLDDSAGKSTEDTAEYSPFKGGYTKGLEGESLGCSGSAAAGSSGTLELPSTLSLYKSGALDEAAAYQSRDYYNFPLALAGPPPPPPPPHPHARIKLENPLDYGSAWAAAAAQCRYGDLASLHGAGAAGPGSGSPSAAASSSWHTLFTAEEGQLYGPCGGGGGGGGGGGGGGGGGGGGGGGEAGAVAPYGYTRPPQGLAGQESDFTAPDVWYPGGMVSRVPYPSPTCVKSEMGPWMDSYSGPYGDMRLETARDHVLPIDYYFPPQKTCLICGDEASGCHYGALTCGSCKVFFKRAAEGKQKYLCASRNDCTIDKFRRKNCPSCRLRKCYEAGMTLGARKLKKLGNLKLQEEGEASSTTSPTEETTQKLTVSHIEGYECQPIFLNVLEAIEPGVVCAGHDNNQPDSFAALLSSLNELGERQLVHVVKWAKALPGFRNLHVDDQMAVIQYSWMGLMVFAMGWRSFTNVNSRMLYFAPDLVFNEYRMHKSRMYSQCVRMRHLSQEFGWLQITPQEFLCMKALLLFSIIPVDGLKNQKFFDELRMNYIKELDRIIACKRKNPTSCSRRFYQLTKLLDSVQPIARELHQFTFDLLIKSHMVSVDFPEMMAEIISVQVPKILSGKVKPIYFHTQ
T1 sequence (P40337 whole entry, looked up): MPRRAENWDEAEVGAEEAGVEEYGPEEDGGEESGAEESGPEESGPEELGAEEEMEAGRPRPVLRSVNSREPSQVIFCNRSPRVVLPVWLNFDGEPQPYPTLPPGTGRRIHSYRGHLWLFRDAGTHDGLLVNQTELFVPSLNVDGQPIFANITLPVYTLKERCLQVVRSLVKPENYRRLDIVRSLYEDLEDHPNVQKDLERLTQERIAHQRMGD

In the case of `Cc1ncsc1-c1ccc([C@H](CC(=O)N2CCC(N3CCC(C#Cc4ccc(C(=O)N[C@H]5C(C)(C)[C@H](Oc6ccc(C#N)c(Cl)c6)C5(C)C)cc4)CC3)CC2)NC(=O)[C@@H]2C[C@@H](O)CN2C(=O)[C@@H](NC(=O)C2(F)CC2)C(C)(C)C)cc1`, the Activity entry in assay [1] is “Dose-Dependent Effect”; in assay [3], 89%; in [4], “Dose-Dependent Effect”; in [6], “Dose-Dependent Effect”; in assay [7], above 95%; in assay [8], “Dose-Dependent Effect”. For the same compound, in assay [2], the IC50 was determined as 183 nM. Further, the outcome in assay [5], in assay [9] and in assay [10] was Active. Further, in assay [11], the result was inactive.
